Measurements as given in PubChem BioAssay (NCI).
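Interpolation was linear, between the two tested concentrations surrounding the appropriate level; five concentrations were tested over 48 hours in 96-well plates. GI50 = concentration required for 50% inhibition of growth. TGI denotes the concentration required for complete inhibition of growth.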

What was measured:
Test in all cases: inhibition of tumour cell growth, NCI panel, 48 h
CCRF-CEM leukemia = system: CCRF-CEM leukemia
M14 melanoma = system: M14 melanoma
SNB-75 CNS = system: SNB-75 CNS
UACC-257 melanoma = system: UACC-257 melanoma
HOP-92 NSCLC = system: HOP-92 NSCLC
CAKI-1 renal = system: CAKI-1 renal
K-562 leukemia = system: K-562 leukemia
NCI/ADR-RES ovarian = system: NCI/ADR-RES ovarian
MDA-MB-231 breast = system: MDA-MB-231 breast
NCI-H522 lung = system: NCI-H522 lung
PC-3 prostate = system: PC-3 prostate
IGROV1 ovarian = system: IGROV1 ovarian
SF-539 CNS = system: SF-539 CNS
HS 578T breast = system: HS 578T breast
HL-60(TB) leukemia = system: HL-60(TB) leukemia
BT-549 breast = system: BT-549 breast
HCC-2998 colon = system: HCC-2998 colon
OVCAR-5 ovarian = system: OVCAR-5 ovarian
SW-620 colon = system: SW-620 colon
SK-MEL-5 melanoma = system: SK-MEL-5 melanoma
UO-31 renal = system: UO-31 renal
SK-OV-3 ovarian = system: SK-OV-3 ovarian
MOLT-4 leukemia = system: MOLT-4 leukemia
OVCAR-8 ovarian = system: OVCAR-8 ovarian
TK-10 renal = system: TK-10 renal
MDA-MB-435 = system: MDA-MB-435
SNB-19 CNS = system: SNB-19 CNS
786-0 renal = system: 786-0 renal
COLO 205 colon = system: COLO 205 colon
HT29 colon = system: HT29 colon
EKVX NSCLC = system: EKVX NSCLC
RPMI-8226 leukemia = system: RPMI-8226 leukemia
SK-MEL-28 melanoma = system: SK-MEL-28 melanoma
OVCAR-4 ovarian = system: OVCAR-4 ovarian
A498 renal = system: A498 renal
RXF 393 renal = system: RXF 393 renal
NCI-H23 lung = system: NCI-H23 lung
LOX IMVI melanoma = system: LOX IMVI melanoma
HOP-62 NSCLC = system: HOP-62 NSCLC
HCT-116 colon = system: HCT-116 colon
HCT-15 colon = system: HCT-15 colon
MALME-3M melanoma = system: MALME-3M melanoma
NCI-H226 lung = system: NCI-H226 lung
DU-145 prostate = system: DU-145 prostate
SF-295 CNS = system: SF-295 CNS
OVCAR-3 ovarian = system: OVCAR-3 ovarian
U251 CNS = system: U251 CNS
SN12C renal = system: SN12C renal
ACHN renal = system: ACHN renal
SR leukemia = system: SR leukemia
SK-MEL-2 melanoma = system: SK-MEL-2 melanoma
NCI-H460 lung = system: NCI-H460 lung
UACC-62 melanoma = system: UACC-62 melanoma

`COc1cccc2c1C(=O)c1c(O)c3c(c(O)c1C2=O)C[C@](O)(C(=O)CO)C[C@H]3O[C@@H]1C[C@@H](NC(=O)CCCN(C)C2(c3ccc(F)cc3)CC3CCC2C3)[C@H](O)[C@@H](C)O1` (stereo partly specified) gave a GI50 (CCRF-CEM leukemia) of 0.927 µM, a TGI (CCRF-CEM leukemia) of 3.29 µM and a GI50 (M14 melanoma) of 0.925 µM. The TGI (M14 melanoma) was 1.73 µM, the GI50 (SNB-75 CNS) was 1.09 µM and the TGI (SNB-75 CNS) was 9.89 µM. The GI50 (UACC-257 melanoma) was 0.984 µM, the TGI (UACC-257 melanoma) was 1.73 µM and the GI50 (HOP-92 NSCLC) was 3.62 µM. The TGI (HOP-92 NSCLC) was 11.1 µM, the GI50 (CAKI-1 renal) was 7.16 µM and the TGI (CAKI-1 renal) was 14.5 µM. For the same compound, the GI50 (K-562 leukemia) was 1.02 µM, the TGI (K-562 leukemia) was 2.58 µM and the GI50 (NCI/ADR-RES ovarian) was 8.47 µM. It also gave a TGI (NCI/ADR-RES ovarian) of 50 µM, a GI50 (MDA-MB-231 breast) of 0.771 µM and a TGI (MDA-MB-231 breast) of 1.54 µM. It also gave a GI50 (NCI-H522 lung) of 0.827 µM, a TGI (NCI-H522 lung) of 1.61 µM and a GI50 (PC-3 prostate) of 1.18 µM. The TGI (PC-3 prostate) was 3.11 µM, the GI50 (IGROV1 ovarian) was 5.72 µM and the TGI (IGROV1 ovarian) was 15.8 µM. The GI50 (SF-539 CNS) was 0.846 µM, the TGI (SF-539 CNS) was 1.56 µM and the GI50 (HS 578T breast) was 6.78 µM. For the same compound, the TGI (HS 578T breast) was 20.9 µM, the GI50 (HL-60(TB) leukemia) was 1.17 µM and the TGI (HL-60(TB) leukemia) was 3.01 µM. The GI50 (BT-549 breast) was 5.07 µM, the TGI (BT-549 breast) was 13.7 µM and the GI50 (HCC-2998 colon) was 0.826 µM. It also gave a TGI (HCC-2998 colon) of 1.55 µM, a GI50 (OVCAR-5 ovarian) of 0.863 µM and a TGI (OVCAR-5 ovarian) of 1.67 µM. For the same compound, the GI50 (SW-620 colon) was 0.641 µM, the TGI (SW-620 colon) was 1.49 µM and the GI50 (SK-MEL-5 melanoma) was 0.859 µM. The TGI (SK-MEL-5 melanoma) was 1.57 µM, the GI50 (UO-31 renal) was 6.23 µM and the TGI (UO-31 renal) was 14.5 µM. It also gave a GI50 (SK-OV-3 ovarian) of 7.59 µM, a TGI (SK-OV-3 ovarian) of 16.4 µM and a GI50 (MOLT-4 leukemia) of 0.382 µM. The TGI (MOLT-4 leukemia) was 1.9 µM, the GI50 (OVCAR-8 ovarian) was 0.913 µM and the TGI (OVCAR-8 ovarian) was 2.36 µM. The GI50 (TK-10 renal) was 0.78 µM, the TGI (TK-10 renal) was 1.64 µM and the GI50 (MDA-MB-435) was 0.836 µM. It also gave a TGI (MDA-MB-435) of 1.61 µM, a GI50 (SNB-19 CNS) of 0.9 µM and a TGI (SNB-19 CNS) of 2.19 µM. It also gave a GI50 (786-0 renal) of 0.801 µM, a TGI (786-0 renal) of 1.57 µM and a GI50 (COLO 205 colon) of 0.712 µM. It also gave a TGI (COLO 205 colon) of 1.44 µM, a GI50 (HT29 colon) of 0.881 µM and a TGI (HT29 colon) of 1.92 µM. The GI50 (EKVX NSCLC) was 0.917 µM, the TGI (EKVX NSCLC) was 2.01 µM and the GI50 (RPMI-8226 leukemia) was 0.946 µM. The TGI (RPMI-8226 leukemia) was 2.23 µM, the GI50 (SK-MEL-28 melanoma) was 0.946 µM and the TGI (SK-MEL-28 melanoma) was 1.72 µM. For the same compound, the GI50 (OVCAR-4 ovarian) was 0.844 µM, the TGI (OVCAR-4 ovarian) was 1.61 µM and the GI50 (A498 renal) was 5.31 µM. It also gave a TGI (A498 renal) of 12.5 µM, a GI50 (RXF 393 renal) of 0.696 µM and a TGI (RXF 393 renal) of 1.41 µM. The GI50 (NCI-H23 lung) was 0.829 µM, the TGI (NCI-H23 lung) was 1.71 µM and the GI50 (LOX IMVI melanoma) was 0.734 µM. For the same compound, the TGI (LOX IMVI melanoma) was 1.45 µM, the GI50 (HOP-62 NSCLC) was 2.26 µM and the TGI (HOP-62 NSCLC) was 10.6 µM. It also gave a GI50 (HCT-116 colon) of 0.742 µM, a TGI (HCT-116 colon) of 1.47 µM and a GI50 (HCT-15 colon) of 0.971 µM. The TGI (HCT-15 colon) was 2.25 µM, the GI50 (MALME-3M melanoma) was 0.914 µM and the TGI (MALME-3M melanoma) was 1.76 µM. For the same compound, the GI50 (NCI-H226 lung) was 3.53 µM, the TGI (NCI-H226 lung) was 15.7 µM and the GI50 (DU-145 prostate) was 0.893 µM. The TGI (DU-145 prostate) was 1.89 µM, the GI50 (SF-295 CNS) was 0.805 µM and the TGI (SF-295 CNS) was 1.6 µM. For the same compound, the GI50 (OVCAR-3 ovarian) was 0.852 µM, the TGI (OVCAR-3 ovarian) was 1.71 µM and the GI50 (U251 CNS) was 0.793 µM. It also gave a TGI (U251 CNS) of 1.52 µM, a GI50 (SN12C renal) of 5.13 µM and a TGI (SN12C renal) of 14 µM. For the same compound, the GI50 (ACHN renal) was 0.736 µM, the TGI (ACHN renal) was 1.4 µM and the GI50 (SR leukemia) was 0.311 µM. The TGI (SR leukemia) was 1.52 µM, the GI50 (SK-MEL-2 melanoma) was 1.06 µM and the TGI (SK-MEL-2 melanoma) was 2.15 µM. It also gave a GI50 (NCI-H460 lung) of 0.545 µM, a TGI (NCI-H460 lung) of 1.22 µM and a GI50 (UACC-62 melanoma) of 0.889 µM. The TGI (UACC-62 melanoma) was 1.92 µM.
